Assay results as given in PMC6934184, “Selective DNA-PKcs inhibition extends the therapeutic index of localized radiotherapy and chemotherapy” (The Journal of Clinical Investigation, 2019).

Experiments:
[1] = system: PI3K; assay: IGF-1-stimulated phospho-AKT Ser473 in MCF7 cells, Western blot; assay type: cell-based, Human; conditions: up to 10 μM, 50 ng/mL IGF-1, 30 min
Procedure: Exponentially growing MCF7 cells were exposed to a range of concentrations of NU5455 and NU7441 (0.03–10 μM) for 1 hour. To assess the ability of NU5455 and NU7441 to inhibit autophosphorylation of DNA-PKcs at Ser2056, cells were treated with 10 Gy irradiation and incubated for 30 minutes. Alternatively, to investigate the effects of NU5455 and NU7441 against PI3K-dependent phosphorylation of AKT at Ser473, cells were treated with 50 ng/mL insulin-like growth factor-1 (IGF-1; Invitrogen) for 30 minutes. Cell lysates were prepared for the detection of p–DNA-PKcs Ser2056 and total DNA-PKcs, or p–AKT Ser473 and total AKT, respectively, using Western blotting. […]
Protein lysates were quantified using the Pierce BCA Protein Assay (ThermoFisher). […]
Membranes were then washed in TBST and incubated with HRP-conjugated goat anti-mouse or anti-rabbit antibodies (P0447 and P0448 respectively, Dako) in 5% (w/v) milk/TBST at room temperature for 1-2 hours. Conjugates were detected using Clarity Western ECL Substrate (BioRad) and chemiluminescence imaged using the Fuji LAS-3000 Luminescent Image Analyzer System (Fujifilm). […]
Alternatively, basal pAKT Ser473 levels were subtracted from all other pAKT bands, and pAKT band intensity calculated relative to total AKT expression and given as a percentage relative to IGF-1 stimulated, DMSO-treated cells. […]

[2] = system: HAP-1 DNA-PK–null cells; assay: clonogenic survival with IR; assay type: cell-based, human; conditions: 5 μM concomitant
Procedure: (§1) Exponentially growing HAP-1 DNA-PK proficient or deficient cells were seeded into 6-well plates and allowed to re-attach. Cells were then incubated with vehicle (DMSO) or NU5455 (5 µM) 1 hour prior to irradiation and for a further 24 hours post-irradiation. Cells were then washed in PBS and incubated in drug-free medium to allow for colony formation.
(§2) To quantify the number of proliferating versus confluent cells, cells were pulsed with 5-ethynyl-2’-deoxyuridine (EdU), and labeled using the Click-iT Plus EdU Alexa Fluor 647 Flow Cytometry Assay Kit together with FxCycle Violet Stain to label DNA (both Thermo Fisher) following the manufacturer’s instructions. Samples of cells taken from tho se used in the clonogenic assay were used to confirm the percentage of cells in each cell cycle phase.
(§3) Samples were acquired on a Symphony A5 flow cytometer (Becton Dickinson, UK).
(§4) Cell cycle phase status was also confirmed by microscopy, using cells grown on coverslips i n 6-well plates. […] Coverslips were mounted using Prolong Glass with NucBlue (ThermoFisher) and images were acquired on the Leica TCS SP8 confocal fluorescence […]
(§5) Treated cells were fixed with 10% (w/v) trichloroacetic acid (Fisher) at 4°C overnight. Cells were stained with sulphorhodamine B (SRB, 0.4% (w/v) in water), and cell density quantified

[3] = system: HAP-1 cells that express 1 copy of PRKDC; assay: clonogenic survival with IR; assay type: cell-based, human; conditions: 5 μM concomitant
Procedure: as §1, §2, §3, §4, §5

CN(C(=O)CN1CCOCC1)c1ccc2sc3c(-c4cccc5c(=O)cc(N6CC7CCC(C6)O7)oc45)cccc3c2c1 [NU5455]
inhibition of IGF-stimulated activation of AKT [1]: did not inhibit | response to IR (clonogenic) [2]: did not alter the response | clonogenic cell-killing effect of 1–4 Gy IR [3]: markedly increased
